Like-named read-outs stand apart in the source and are kept apart here.
Assays:
intestinal stem cells = experiment: mRNA expression (qPCR) of ChgA and other lineage markers in differentiated intestinal stem cells; type: cell-based, mouse; conditions: for ChgA expression of the differentiated cells: versus previous differentiation conditions (FIG. 21); for differentiation towards EEC (ChgA expression): added to Notch and EGFR/MEK/ERK inhibition combination without R-Spondin1
Source text: “mRNA ChgA Expression Assay” refers to an assay used to determine the relative ChgA mRNA expression level in a cell population. For example, the assay can determine ChgA mRNA expression level of a differentiated cell population following treatment with agents being tested, as compared to an untested population of post-natal stem cells. In an example of an mRNA ChgA Expression Assay, the cells were collected and the RNA is extracted from the cells using an RNA extraction kit (such as RNeasy Mini kit, Qiagen). The ChgA expression level is then assessed by Quantitative real-time PCR using a one-step qPCR kit (such as QuantiTech Probe PCR kit, Qiagen) and ChgA primers and probes (such as commercially available Taqman probe for mouse ChgA, Life Technologies).
(§1) Organoids or differentiated cells were harvested and RNA was extracted using RNeasy Micro Kit (Qiagen) according to the manufacturer's instruction. Quantitative real-time PCR was performed with QuantiTect Probe PCR kit (Qiagen) using commercially available primers and TaqMan probes (Life Technologies).
Cells were then cultured with EGF, Noggin, and DAPT (END), as well as small molecules. After 2-3 days of differentiation, the cells lysed and ChgA expression was measured by qRT-PCR.
Small molecules were further validated using a 24-well plate culture and the differentiation system. […] The expression of markers of secretory lineage cells including goblet cells (Muc2), enteroendocrine cells (ChgA), and Paneth cells (Lyz1) were measured.

[1] = system: gastrointestinal stem cells; experiment: Insulin / Nkx6.1 mRNA expression (qPCR), 3-stage conversion to insulin producing cells; type: cell-based, mouse
Source text: “mRNA Insulin Expression Assay” refers to an assay used to determine the relative insulin mRNA expression level of a cell population. For example, the assay can determine the insulin mRNA level expressed in a cell population treated to increase the expression of insulin in the cells, as compared to an untreated population of cells. In an exemplary mRNA Insulin Expression Assay, the cells were collected and the RNA is extracted from the cells using an RNA extraction kit (such as RNeasy Mini kit, Qiagen). The insulin expression level is then assessed by Quantitative real-time PCR using a one-step qPCR kit (such as QuantiTech Probe PCR kit, Qiagen) and Ins1 or Ins2 primers and probes (such as the commercially available TaqMan probe for mouse Ins1 and Ins2, Life Technologies). The relative insulin mRNA expression can be determined relative to a baseline or other marker, such as Hprt mRNA expression level or other baseline marker.
as §1
Based on the protocol to convert gastrointestinal stem cells into insulin producing cells, a 3-stage process was developed, specifically, Day 0-1 as Stage 1, Day 1-3 as Stage 2, Day 3-5 as Stage 3. After Stage 3, the cells turn on significant level of Insulin expression as indicated by Ins-EGFP expression and qPCR for Insulin mRNA expression. Optionally, the cells can be further cultured for 1-2 weeks, as Stage 4. For each stage, a set of specific combination of small molecules (and/or growth factors) were added. The objective was to optimize the reprogramming protocol to increase insulin expression, specifically Insulin mRNA expression for each stage, by screening and testing new small molecules (or growth factors).

[2] = system: differentiated intestinal stem cells; experiment: Insulin-GFP reporter expression (FACS) in differentiated intestinal stem cells; type: cell-based, mouse; conditions: for percentage of Insulin-GFP+ cells: further addition to 616452, day 5
Source text: “Insulin Activity Assay” as used herein is an assay used to determine the extent to which insulin gene transcription, translation or insulin release has been activated in a cell population. In an exemplary Insulin Activity Assay, the initial cells are isolated from the intestine of an Insulin-GFP mouse such as […] mouse (also referred to as the MIT-GFP mouse, Jackson lab stock no.: 006864). Intestinal crypts are isolated from the proximal half of the intestine. […] The cells are then passaged for 1-2 times to create a starting cell population for the assay. To test the capacity of agents to activate insulin gene transcription, translation or insulin release, the cells are incubated with appropriate culture media (e.g. aforementioned crypt culture media), growth factors and/or other agents being tested. Appropriate culture media, including crypt culture media as well as the agents being assessed, are added into each well and incubated with the cells for a period of 2-10 days with media change every 2 days. The fraction of insulin-GFP positive cells (i.e., cells in which the insulin-GFP reporter is activated) can be quantified using a flow cytometer to measure the fraction of GFP+ cell population present in the total cell population. Also, the average insulin activity of a cell population can be measured by measuring the average mRNA expression level of insulin of the population normalized using suitable references or housekeeping genes (e.g., using mRNA expression of Hprt as a baseline).

[3] = system: differentiated cell colonies
[4] = continuing culture of Islet-like Insulin expression cell colonies

`Cc1cc(-c2ccc(CC(=O)Nc3ccc(-c4cccnc4)cc3)cc2)ccn1` [Wnt-C59] was tested, and the “Paneth cell marker Lyz1 expression” value (intestinal stem cells; added in step 2) was “effectively decreased”, the ChgA expression (intestinal stem cells; added in step 2 of 2-step protocol) was “further increased” and the ChgA expression (intestinal stem cells; delayed addition for 12-24 hours in step 2) was “further increases”. For the same compound, the “ChgA expression of the differentiated cells” value (intestinal stem cells) was “further increased”, the “Insulin mRNA expression” value ([1]; addition delayed for 12 hours in Stage 2) was “increased” and the optimal dose in promoting Insulin and Nkx6.1 expression ([1]; dose response (FIG. 52)) was 5 µM. The “percentage of Insulin-GFP+ cells” value [2] was “subsequently increased”.
`Cc1ccc2nc(NC(=O)CSc3nc4c(c(=O)n3-c3ccccc3)SCC4)sc2c1` [IWP 2] was tested, and the “differentiation towards EEC (ChgA expression)” value (intestinal stem cells) was “did not further increase”.
In the case of `N[C@@H](Cc1cc(I)c(Oc2ccc(O)c(I)c2)c(I)c1)C(=O)O` [T3, Triiodothyronine], the “Insulin mRNA expression” value ([1]; added in Stage 3) is reported as “greatly increased”.
“Exendin-4: factor identified to increase Insulin mRNA expression” was tested, and the “Insulin mRNA expression” value ([1]; added in Stage 3) was “increase”.
`O=C1O[C@H]([C@@H](O)CO)C(O)=C1O` [Vitamin C] was tested, and the effect on conversion ([1]; added in Stage 2-3) was “beneficial effects” and the “Insulin mRNA expression” value ([1]; added in Stage 3) was “did not show such effect”.
With `Nc1ncn([C@H]2C[C@H](O)[C@@H](CO)O2)c(=O)n1` [5Aza, 5-aza-2′-deoxycytidine] the “Insulin mRNA expression” value ([1]; treatment extended from Stage 1 only to Stage 1 and Stage 2) was “slightly increased”.
For `O=C(O)c1ccc(O)c2ncccc12` [IOX1], the “Insulin and Nkx6.1 expression” value ([1]; used at 5-10 μM) was “increased”.
With `Nc1ncn([C@@H]2O[C@H](CO)[C@@H](O)[C@H]2O)c(=O)n1` [5-Aza, 5-Azacytidine] the “optimal concentration in inducing insulin-GFP expression” value ([2]; dose response, day 5) was 0.5 to 1 µM, the “percentage of Insulin-GFP+ cells” value [2] was “subsequently increased” and the “cell death in the culture” value [3] was “induced cell death”.
In the case of `COc1cc2ncnc(Nc3ccc(NC(=O)c4ccccc4)cc3)c2cc1OC` [Aurora Kinase Inhibitor II], the “Insulin mRNA expression” value ([1]; added in Stage 3) is reported as “increase”.
For EGF: epidermal growth factor, the “EEC marker (ChgA, Gip, Gcg, CCK) expression on removing EGF from the media” value (intestinal stem cells; 5 days) was “further increased” and the “dead cells in the lumen of the differentiated cell colony” value ([3]; EGF removed in both steps) was “more dead cells”.
`O=C(NC1CC1)c1cc(-c2cccs2)on1` [ISX-9, N-cyclopropyl-5-(2-thienyl)-3-isoxazolecarboxamide] was tested, and the “expression of functional EEC markers such as Gip, Gcg, Cck, Pyy” value (intestinal stem cells; relative to reference gene Hprt) was “decreased”, the “ChgA expression of the differentiated cells” value (intestinal stem cells) was “further increased” and the “optimal dose in promoting Insulin and Nkx6.1 expression” value ([1]; dose response) was 10 to 20 µM. The “number of GFP+ cells” value ([2]; added to the combination, 5 days in culture) was “further increase”.
For `CC(=O)N[C@@H](CS)C(=O)O` [N-Acetylcysteine], the “Insulin mRNA expression” value ([1]; Stage 3, combined with T3) was “further increased” and the “Insulin mRNA expression” value ([1]; added in Stage 3) was “increased”.
`COC(=O)C1=C(C)NC(C)=C([N+](=O)[O-])C1c1ccccc1C(F)(F)F` (centres unmarked) [BayK 8644] was tested, and the “stages of addition giving highest activity” value [1] was “highest activity when added in Stages 1-3”, the “Insulin mRNA expression” value ([1]; added in Stage 1) was “increased” and the “concentration of highest activity / optimal concentration in promoting Insulin expression” value ([1]; dose response) was 2 µM. For the same compound, the effect of removal [3, 4] was “could be removed without much influence”.
`CC(C)Oc1ccc(-c2cnc3c(-c4ccnc5ccccc45)cnn3c2)cc1` [DMH-1] was tested, and the “expression of Nkx6.1 and insulin” value ([1]; added in Stages 2-3) was “increased” and the effect of removal [3, 4] was “could be removed without much influence”.
With `C=C[C@@]1(C)CC(=O)[C@]2(O)[C@@]3(C)[C@@H](O)CCC(C)(C)[C@@H]3[C@H](O)[C@H](OC(C)=O)[C@@]2(C)O1` [Forskolin] the cell survival ([3]; 50-100 μM, added in Stage 3) was “improved cell survival” and the cell survival [3, 4] was “increased cell survival”.
In the case of `Cc1c[nH]c(-c2cnc(NCCNc3ccc(C#N)cn3)nc2-c2ccc(Cl)cc2Cl)n1` [CHIR99021, 6-[[2-[[4-(2,4-dichlorophenyl)-5-(5-methyl-1H-imidazol-2-yl)-2-pyrimidinyl]amino]ethyl]amino]-3-pyridinecarbonitrile], the “differentiation towards EEC (ChgA expression)” value (intestinal stem cells) is reported as “did not further increase”, the “Insulin mRNA expression” value ([1]; Stage 3, combined with T3) is reported as “further increased” and the “Insulin mRNA expression” value ([1]; added in Stage 3) is reported as “greatly increased”. For the same compound, the GFP expression ([2]; added in Step 1 to increase Wnt activation, 5 days) was “did not increase”.
